As a reminder, the Ki is a measure of affinity in units of concentration, obtained from inhibition or displacement.

The structures appear in SMILES notation. Bounds are passed on as bounds.

In patent US7981912B2, “Indole acetic acids exhibiting CRTH2 receptor antagonism and uses thereof” (Wyeth LLC, priority 2004, dated 2011) one finds Ki data, which are given here for 24 molecules.

This assay has as its target T1, human CRTH2 (Homo sapiens, UniProt Q9Y5Y4).
T1 sequence (Q9Y5Y4 1-395): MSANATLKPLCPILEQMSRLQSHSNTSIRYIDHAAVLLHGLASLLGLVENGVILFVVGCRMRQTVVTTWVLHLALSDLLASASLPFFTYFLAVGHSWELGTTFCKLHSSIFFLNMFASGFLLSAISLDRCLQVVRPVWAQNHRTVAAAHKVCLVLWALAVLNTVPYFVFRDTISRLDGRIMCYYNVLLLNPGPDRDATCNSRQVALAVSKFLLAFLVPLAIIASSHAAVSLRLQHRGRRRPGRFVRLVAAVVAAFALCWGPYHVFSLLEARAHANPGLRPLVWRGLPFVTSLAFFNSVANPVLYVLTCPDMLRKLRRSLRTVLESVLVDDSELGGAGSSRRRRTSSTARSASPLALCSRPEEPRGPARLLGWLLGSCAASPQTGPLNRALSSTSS
The assay can be described thus: CRTH-2 binding assay (scintillation proximity assay, inhibition of 3H-PGD2 binding). More on the design: expressed in transfected cells; host or cells: HEK 293EBNA-hCRTH2 (membrane preparation). As to conditions: inhibition of 3H-PGD2 (3.6 nM) binding to HEK 293EBNA-hCRTH2 membranes; Ki calculated from IC50. The protocol: A CRTH2 binding assay was developed to measure the ability of compounds to inhibit the binding of PGD2 to human CRTH2 using a scintillation proximity assay.
Membranes containing hCRTH2 receptors were prepared from HEK 293EBNA-hCRTH2 cells (a HEK 293EBNA cell line stably expressing human CRTH2). The cells were grown to confluency, harvested and washed with PBS. The cells were resuspended in 10 mM Hepes pH 7.4, 1 mM EDTA and protease inhibitors and incubated for 30 min on ice. The cells were homogenized and centrifuged for 10 min at 1000×g. The supernate was centrifuged for 30 min at 100,000×g and the membrane pellet was then resusupended in 10 mM Hepes pH 7.4 and 1 mM EDTA. The protein concentration of the membrane preparation was determined by Bradford assay (Bio-Rad).
The ability of compounds to inhibit the interaction of PGD2 to human CRTH2 was determined at seven compound concentrations. Compounds were serially diluted in DMSO then diluted into CRTH2 buffer without glycerol (10 mM Hepes pH 7.4, 1 mM EDTA, 10 mM MnCl2) to six times the final desired concentration. 20 μL of the diluted compounds were transferred into non-surface binding 96 well plates (Corning). Each concentration was done in triplicate. In addition to test compounds, each plate contained 12 control wells. Six of these wells contained 20 μL of CRTH2 buffer without glycerol. These wells were used to measure total binding. Six wells contained 20 μL of CRTH2 buffer without glycerol plus 1.5 mM indomethacin. These wells were used to measure non-specific binding. Next, HEK 293EBNA-hCRTH2 membranes were resuspended in CRTH2 buffer with glycerol (10 mM Hepes pH 7.4, 1 mM EDTA, 10 mM MnCl2, 25% glycerol) so that the final concentration was approximately 20 μg protein/100 μL. Polylysine coated yttrium silicate SPA beads (Amershamn) were added to the membrane mix to a concentration of 0.4 mg/100 μL and finally ^3H-PGD2 was added to the membrane/SPA bead mix to 3.6 nM. 100 μL of the membrane/SPA bead/^3H-PGD2 mix was added to each well of the non-surface binding plates containing the diluted compound plus controls. The plates were incubated for 2 hours at room temperature with shaking and then the plates were counted on a Microbeta scintillation counter (Perkin Elmer) for 1 min per well.
IC50 values were determined from the experimental results by nonlinear regression using Prism 4.0 software. The IC50 values were then used in conjunction with the […] for hCRTH2 and the ^3H-PGD2 concentration used in the experiment to calculate the Ki for each compound.

`COCCCN1C(c2cn(CC(=O)O)c3ccc(C)cc23)c2ccccc2S1(=O)=O` (stereo not drawn) [Example 52, {3-[2-(3-Methoxy-propyl)-1,1-dioxo-2,3-dihydro-1H-1λ^6-benzo[d]isothiazol-3-yl]-5-methyl-indol-1-yl}-acetic acid]: the inhibition constant (Ki) is below 10000 nM.

Turning to `Cc1ccc2c(c1)c(C1c3ccccc3S(=O)(=O)N1C(C)C#N)cn2CC(=O)O` (stereo not drawn) [Example 53, {3-[2-(Cyano-methyl-methyl)-1,1-dioxo-2,3-dihydro-1H-1λ^6-benzo[d]isothiazol-3-yl]-5-methyl-indol-1-yl}-acetic acid], the inhibition constant (Ki) is below 10000 nM.

As for `COc1ccc2c(c1)c(C1c3ccccc3S(=O)(=O)N1Cc1ccc(F)cc1)cn2CC(=O)O` (stereo not drawn) [Example 54, {3-[2-(4-Fluoro-benzyl)-1,1-dioxo-2,3-dihydro-1H-1λ^6-benzo[d]isothiazol-3-yl]-5-methoxy-indol-1-yl}-acetic acid], the Ki is below 1000 nM.

Turning to `COc1ccc2c(c1)c(C1c3ccccc3S(=O)(=O)N1CCc1ccccc1)cn2CC(=O)O` (stereo not drawn) [Example 55, [3-(1,1-Dioxo-2-phenethyl-2,3-dihydro-1H-1λ^6-benzo[d]isothiazol-3-yl)-5-methoxy-indol-1-yl]-acetic acid], the Ki was below 10000 nM.

Consider `COc1ccc2c(c1)c(C1c3ccccc3S(=O)(=O)N1C(C)Cc1ccccc1)cn2CC(=O)O` (stereo not drawn) [Example 56, {5-Methoxy-3-[2-(1-methyl-2-phenyl-ethyl)-1,1-dioxo-2,3-dihydro-1H-1λ^6-benzo[d]isothiazol-3-yl]-indol-1-yl}-acetic acid], for which the Ki is below 10000 nM.

For `COc1ccc2c(c1)c(C1c3ccccc3S(=O)(=O)N1Cc1ccc(C#N)cc1)cn2CC(=O)O` (stereo not drawn) [Example 57, {3-[2-(4-Cyano-benzyl)-1,1-dioxo-2,3-dihydro-1H-1λ^6-benzo[d]isothiazol-3-yl]-5-methoxy-indol-1-yl}-acetic acid], the Ki is below 10000 nM.

On to `C=CCN1C(c2c(C)n(CC(=O)O)c3ccc(Cl)cc23)c2ccccc2S1(=O)=O` (stereo not drawn) [Example 58, [3-(2-Allyl-1,1-dioxo-2,3-dihydro-1H-1λ^6-benzo[d]isothiazol-3-yl)-5-chloro-2-methyl-indol-1-yl]-acetic acid], for which the Ki was below 1000 nM.

On to `CCOC(=O)CN1C(c2c(C)n(CC(=O)O)c3ccc(Cl)cc23)c2ccccc2S1(=O)=O` (stereo not drawn) [Example 59, [5-Chloro-3-(2-ethoxycarbonylmethyl-1,1-dioxo-2,3-dihydro-1H-1 λ^6-benzo[d]isothiazol-3-yl)-2-methyl-indol-1-yl]-acetic acid], for which the inhibitory constant (Ki) was below 100 nM.

As to `Cc1c(C2c3ccccc3S(=O)(=O)N2Cc2ccc(F)cc2)c2cc(Cl)ccc2n1CC(=O)O` (stereo not drawn) [Example 60, {5-Chloro-3-[2-(4-fluoro-benzyl)-1,1-dioxo-2,3-dihydro-1H-1λ^6-benzo[d]isothiazol-3-yl]-2-methyl-indol-1-yl}-acetic acid], the Ki is below 1000 nM.

In the case of `Cc1c(C2c3ccc(F)cc3S(=O)(=O)N2Cc2cccc(F)c2)c2ccccc2n1CC(=O)O` (stereo not drawn) [Example 63, {3-[6-Fluoro-2-(3-fluoro-benzyl)-1,1-dioxo-2,3-dihydro-1H-1λ^6benzo[d]isothiazol-3-yl]-2-methyl-indol-1-yl}-acetic acid], the inhibition constant Ki is below 1000 nM.

Regarding `Cc1c(C2c3ccc(F)cc3S(=O)(=O)N2CCc2ccccc2)c2ccccc2n1CC(=O)O` (stereo not drawn) [Example 64, [3-(6-Fluoro-1,1-dioxo-2-phenethyl-2,3-dihydro-1H-1λ^6-benzo[d]isothiazol-3-yl)-2-methyl-indol-1-yl]-acetic acid], the Ki is below 100 nM.

On to `Cc1noc(C)c1CN1C(C)(c2c(C)n(CC(=O)O)c3ccccc23)c2ccccc2S1(=O)=O` (stereo not drawn) [Example 65, {3-[2-(3,5-Dimethyl-isoxazol-4-ylmethyl)-3-methyl-1,1-dioxo-2,3-dihydro-1H-1λ^6-benzo[d]isothiazol-3-yl]-2-methyl-indol-1-yl}-acetic acid], for which the Ki is below 100 nM.

With `Cc1c(C2(C)c3ccccc3S(=O)(=O)N2Cc2cccc(F)c2)c2ccccc2n1CC(=O)O` (stereo not drawn) [Example 66, {3-[2-(3-Fluoro-benzyl)-3-methyl-1,1-dioxo-2,3-dihydro-1H-1λ^6-benzo[d]isothiazol-3-yl]-2-methyl-indol-1-yl}-acetic acid], the Ki is below 1000 nM.

On to `Cc1c(C2(C)c3ccccc3S(=O)(=O)N2CCOc2ccccc2)c2ccccc2n1CC(=O)O` (stereo not drawn) [Example 67, {2-Methyl-3-[3-methyl-1,1-dioxo-2-(2-phenoxy-ethyl)-2,3-dihydro-1H-1-benzo[d]isothiazol-3-yl]-indol-1-yl}-acetic acid], for which the inhibition constant Ki is below 1000 nM.

Take `Cc1noc(C)c1CN1C(=O)c2ccccc2C1c1c(C)n(CC(=O)O)c2ccccc12` (stereo not drawn) [Example 68, {3-[2-(3,5-Dimethyl-isoxazol-4-ylmethyl)-3-oxo-2,3-dihydro-1H-isoindol-1-yl]-2-methyl-indol-1-yl}-acetic acid]: the Ki was below 1000 nM.

Turning to `Cc1noc(C)c1CN1C(c2c(C)n(CC(=O)O)c3ccccc23)CCS1(=O)=O` (stereo not drawn) [Example 69, {3-[2-(3,5-Dimethyl-isoxazol-4-ylmethyl)-1,1-dioxo-λ^6-isothiazolidin-3-yl]-2-methyl-indol-1-yl}-acetic acid], the Ki is below 100 nM.

For `Cc1c(C2=NN(Cc3ccccc3)C(=O)C3CC=CCC23)c2ccccc2n1CC(=O)O` (stereo not drawn) [Example 71, [3-(3-Benzyl-4-oxo-3,4,4a,5,8,8a-hexahydro-phthalazin-1-yl)-2-methyl-indol-1-yl]-acetic acid], the inhibition constant Ki is below 1000 nM.

On to `Cc1c(C2=NN(Cc3ccccc3)C(=O)C(C)(C)C2)c2cc(Cl)ccc2n1CC(=O)O` [Example 73, [3-(1-Benzyl-5,5-dimethyl-6-oxo-1,4,5,6-tetrahydro-pyridazin-3-yl)-5-chloro-2-methyl-indol-1-yl]-acetic acid], for which the Ki was below 100 nM.

As for `Cc1c(C2c3ccccc3S(=O)(=O)N2c2ccccc2)c2ccccc2n1CC(=O)O` (stereo not drawn) [Example 74, [3-(1,1-Dioxo-2-phenyl-2,3-dihydro-1H-1λ^6-benzo[d]isothiazol-3-yl)-2-methyl-indol-1-yl]-acetic acid], the Ki is below 1000 nM.

Turning to `Cc1c(C2=NN(Cc3ccccc3)S(=O)(=O)c3ccccc32)c2cc(F)ccc2n1CC(=O)O` [Example 75, [3-(2-Benzyl-1,1-dioxo-1,2-dihydro-1λ^6-benzo[e][1,2,3]thiadiazin-4-yl)-5-fluoro-2-methyl-indol-1-yl]-acetic acid], the inhibitory constant (Ki) was below 1000 nM.

As to `Cc1c(C2=NN(Cc3ccccc3Cl)S(=O)(=O)c3ccccc32)c2cc(F)ccc2n1CC(=O)O` [Example 76, {3-[2-(2-Chloro-benzyl)-1,1-dioxo-1,2-dihydro-1λ^6-benzo[e][1,2,3]thiadiazin-4-yl]-5-fluoro-2-methyl-indol-1-yl}-acetic acid], the Ki is below 100 nM.

For the molecule `Cc1c(C2=NN(Cc3cccc(Cl)c3)S(=O)(=O)c3ccccc32)c2cc(F)ccc2n1CC(=O)O` [Example 77, {3-[2-(3-Chloro-benzyl)-1,1-dioxo-1,2-dihydro-1λ^6-benzo[e][1,2,3]thiadiazrn-4-yl]-5-fluoro-2-methyl-indol-1-yl}-acetic acid], the inhibition constant (Ki) was below 1000 nM.

For `Cc1c(C2=NN(Cc3ccc(Cl)cc3)S(=O)(=O)c3ccccc32)c2cc(F)ccc2n1CC(=O)O` [Example 78, {3-[2-(4-Chloro-benzyl)-1,1-dioxo-1,2-dihydro-1λ^6-benzo[e][1,2,3]thiadiazin-4-yl]-5-fluoro-2-methyl-indol-1-yl}-acetic acid], the Ki is below 1000 nM.

With `COc1cccc(CN2N=C(c3c(C)n(CC(=O)O)c4ccc(F)cc34)c3ccccc3S2(=O)=O)c1` [Example 79, {3-[2-(3-Methoxy-benzyl)-1,1-dioxo-1,2-dihydro-1λ^6-benzo[e][1,2,3]thiadiazin-4-yl]-5-fluoro-2-methyl-indol-1-yl}-acetic acid], the Ki was below 1000 nM.
